The results in this text go back to article PMC6338644 (The FASEB Journal, 2018).

Assay [1] concerns SHIP2 immunoprecipitated from the lysates of L6 myotubes. The class given is cell-based, rat. The following applies: 20–24 h. As to the method:
Immortalized human podocytes were maintained as previously described ([10]). […] Podocytes were lysed as previously described ([21]).
(§1) Recombinant His-tagged human SHIP2 and SHIP1 phosphatase domains were produced as previously described ([17]). […] Immunocomplexes were bound to protein G-Sepharose beads at +4°C for 2 h and washed 3 times with malachite green phosphate assay buffer {10 mM 4-(2-hydroxyethyl)-1-piperazineethanesulfonic acid (HEPES), pH 7.25, 6 mM MgCl2, 0.1% 3-[(3-cholamidopropyl)dimethylammonio]-1-propanesulfonate (CHAPS), 250 mM sucrose, and 0.25 mM EDTA}.
(§2) The catalytic activities of the recombinant SHIP2 and SHIP1 phosphatase domains were determined by malachite green phosphate assay at the High Throughput Biomedicine Unit (University of Helsinki) using D-myo-PI(3,4,5)P3 (Echelon Biosciences, Salt Lake City, UT, USA). Different volumes, resulting in desired final concentrations of inhibitors, were transferred to the wells of 384-well plates by using the Echo550 acoustic dispenser (Labcyte, San Jose, CA, USA). Recombinant protein (100 ng) in reaction buffer {10 mM HEPES, pH 7.25, 6 mM MgCl2, 0.1% CHAPS, 250 mM sucrose, and 0.25 mM EDTA} was placed in each well (7.5 µl), and the plates were preincubated at room temperature for 15 min. The phosphatase reaction was started by adding PI(3,4,5)P3 diluted in the reaction buffer (7.5 µl) to each well to reach a final concentration of 100 µM PI(3,4,5)P3 in the 15 µl reaction volume. The plates were incubated at room temperature for 20 min, after which, 15 µl BIOMOL green reagent (Biomol, Plymouth Meeting, PA, USA) was added to each well, and then the plates were incubated for another 25 min at room temperature. Absorbance was measured at 620 nm using a Pherastar FS plate reader (BMG Labtech, Offenburg, Germany). For the manual malachite green phosphate assay in 96-well plates [see Fig. 1; and activity measurement of phosphatase and tensin homolog (PTEN; Signalchem, Richmond, BC, Canada)], the reaction volume was increased to 50 µl, and 100 µl Biomol Green Reagent was added. The catalytic activity of SHIP2 immunoprecipitated from cell and tissue lysates was determined as in Saurus et al. ([22]), omitting SHIP2 inhibitors in lysis buffer, immunoprecipitation reaction, wash, and assay buffers. AS1949490 was synthesized, as described in Supplemental Fig. S1A, or purchased from Tocris Bioscience (Bristol, United Kingdom).
Hydrogen bond is shown in green. Hydrophobic residues are shown in gray, positive-charged residues in blue, and negative-charged residues in red. […] The catalytic activity of SHIP2 was measured by manual malachite green phosphate assay.

The target in assay [2] is T1, His-tagged human SHIP1 phosphatase domain (Homo sapiens, UniProt Q92835).
T1 construct: Recombinant His-tagged human SHIP2 and SHIP1 phosphatase domains were produced as previously described; His; made in house
T1 sequence (Q92835 399-715 limits assumed): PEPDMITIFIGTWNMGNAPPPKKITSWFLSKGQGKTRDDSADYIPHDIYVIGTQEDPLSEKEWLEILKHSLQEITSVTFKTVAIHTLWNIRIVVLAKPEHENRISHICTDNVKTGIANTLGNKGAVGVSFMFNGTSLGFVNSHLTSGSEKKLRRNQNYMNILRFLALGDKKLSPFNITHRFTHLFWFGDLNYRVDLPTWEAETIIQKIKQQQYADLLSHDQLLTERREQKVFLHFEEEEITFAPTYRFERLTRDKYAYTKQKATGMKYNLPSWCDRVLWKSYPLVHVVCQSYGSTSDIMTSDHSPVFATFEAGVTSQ
In words: Malachite green phosphate assay, recombinant SHIP1 phosphatase domain (High Throughput Biomedicine Unit). The class given is biochemical. The following applies: for pIC50: purified His-tagged phosphatase domain. As to the method: as §1, §2

Assay [3] deals with T2, His-tagged human SHIP2 phosphatase domain (Homo sapiens, UniProt O15357).
T2 construct: we produced a His-tagged human SHIP2 phosphatase domain; His; made in house
T2 sequence (O15357 419-732 limits assumed): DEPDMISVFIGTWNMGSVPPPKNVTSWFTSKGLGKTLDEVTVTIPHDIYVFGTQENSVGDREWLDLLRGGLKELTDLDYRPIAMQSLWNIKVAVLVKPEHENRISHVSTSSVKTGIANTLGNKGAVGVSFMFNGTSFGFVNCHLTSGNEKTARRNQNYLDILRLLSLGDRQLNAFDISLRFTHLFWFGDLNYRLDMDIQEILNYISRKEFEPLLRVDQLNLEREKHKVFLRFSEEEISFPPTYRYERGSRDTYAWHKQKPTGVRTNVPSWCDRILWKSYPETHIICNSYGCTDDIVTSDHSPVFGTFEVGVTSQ
In words: Malachite green phosphate assay, recombinant SHIP2 phosphatase domain (High Throughput Biomedicine Unit, 384-well). The assay is classed as biochemical. As for the experimental part:
as §1, §2

For assay [4], the target named is T3, phosphatase and tensin homolog (PTEN) (Homo sapiens, UniProt P60484).
T3 construct: purchased Signalchem
T3 sequence (P60484 whole entry, species assumed): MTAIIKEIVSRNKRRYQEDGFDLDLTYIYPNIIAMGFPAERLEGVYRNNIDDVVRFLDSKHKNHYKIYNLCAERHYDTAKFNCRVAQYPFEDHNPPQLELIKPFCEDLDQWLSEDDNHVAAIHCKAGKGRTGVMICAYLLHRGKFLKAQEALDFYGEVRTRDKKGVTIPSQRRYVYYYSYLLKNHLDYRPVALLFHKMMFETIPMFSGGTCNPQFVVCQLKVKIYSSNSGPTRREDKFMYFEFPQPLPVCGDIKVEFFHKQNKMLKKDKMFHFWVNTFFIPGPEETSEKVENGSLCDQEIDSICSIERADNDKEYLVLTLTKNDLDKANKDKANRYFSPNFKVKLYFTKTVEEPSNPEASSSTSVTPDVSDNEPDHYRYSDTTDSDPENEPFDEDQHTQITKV
The assay can be described thus: Manual malachite green phosphate assay, PTEN activity. The class given is biochemical.

The mark [5] stands for this setting: inhibitors at 100 µM concentration, 100 µM.

pIC50: −log10 of the molar value. Several values for one entry are separate records, joined by “and”; a condition that tells them apart may be missing. Identical values can stand only once. Counter-ions that a name gives are not always drawn. Like-named read-outs stand apart in the source and are kept apart here.

A word on the pIC50: it is the IC50 on a negative log10 scale, so that one unit is a factor of ten. Regarding `C[C@H](NC(=O)c1sccc1OCc1ccc(Cl)cc1)c1ccccc1` [AS1949490], in assay [1] (20 µM), the “reduction of SHIP2 activity in myotubes” value is approximately 30%. Besides, in assay [2] (setting [5]), the “SHIP1 Inhibition efficiency” value is 12% and 11.8%. Further, the pIC50 in assay [2] and in assay [4] (manual assay) was less than 4.30 throughout. Moreover, the “SHIP2 Inhibition efficiency” value in assay [3] (setting [5]) was 26% and 25.9%. The “PTEN Inhibition efficiency” value in assay [4] (inhibitors at 100 µM concentration) came to 0%.
In general, inhibition refers to the share of the control response that was lost under treatment. Regarding `CN(C)C(=N)N=C(N)N` [Metformin, 1,1-Dimethylbiguanide hydrochloride], the “reduction of SHIP2 activity in myotubes” value in assay [1] (20 µM) was approximately 30%; in assay [1] (1 mM) it was 24%. In addition, the “SHIP2 overexpression-induced SHIP2 activity in myotubes” value in assay [1] (L6 myotubes overexpressing SHIP2, 1 mM) is “to the level in the control”. Moreover, the “inhibition of SHIP1 (in words)” value in assay [2] is reported as “does not inhibit”. The inhibition at 100 µM in assay [2] (inhibitors at 100 µM concentration, read-out: SHIP1 Inhibition efficiency) is 11.1%; in assay [3] (inhibitors at 100 µM concentration, read-out: SHIP2 Inhibition efficiency) it was 39.4%. Also, the pIC50 in assay [2] is less than 4.30; in assay [3] (purified His-tagged phosphatase domain, 100 µM PI(3,4,5)P3), 5.22. For the same compound, in assay [4], the “inhibition of PTEN (in words)” value is given as “does not inhibit”. Moreover, the “PTEN IC50” value in assay [4] (manual assay) is more than 50 µM.
